Key:
Type in all cases: in vivo
[1] = tested on: Alopecurus myosuroides; experiment: Pre-emergence herbicidal effect against ALOMY; settings: 1280 g/ha, visual score after 3 weeks, 100% = plants have died, 0% = like control plants
Excerpt: (§1) 1. Pre-emergence herbicidal effect and crop plant compatibility Seeds of monocotyledonous and dicotyledonous weed plants and crop plants are laid out in sandy loam soil in wood-fibre pots and covered with soil. The compounds of the invention, formulated in the form of wettable powders (WP) or as emulsion concentrates (EC), are then applied to the surface of the covering soil as aqueous suspension or emulsion at a water application rate equating to 600 to 800 L/ha with addition of 0.2% wetting agent. After the treatment, the pots are placed in a greenhouse and kept under good growth conditions for the trial plants. The damage to the test plants is scored visually after a test period of 3 weeks by comparison with untreated controls (herbicidal activity in percent (%): 100% activity=the plants have died, 0% activity=like control plants). [table]

[2] = tested on: Digitaria sanguinalis; experiment: Pre-emergence herbicidal effect against DIGSA; settings: 1280 g/ha, visual score after 3 weeks, 100% = plants have died, 0% = like control plants
Excerpt: as §1

[3] = tested on: Echinochloa crus-galli; experiment: Pre-emergence herbicidal effect against ECHCG; settings: 1280 g/ha, visual score after 3 weeks, 100% = plants have died, 0% = like control plants
Excerpt: as §1

[4] = tested on: Lolium rigidum; experiment: Pre-emergence herbicidal effect against LOLRI; settings: 1280 g/ha, visual score after 3 weeks, 100% = plants have died, 0% = like control plants
Excerpt: as §1

[5] = tested on: Poa annua; experiment: Pre-emergence herbicidal effect against POAAN; settings: 1280 g/ha, visual score after 3 weeks, 100% = plants have died, 0% = like control plants
Excerpt: as §1

[6] = tested on: Setaria viridis; experiment: Pre-emergence herbicidal effect against SETVI; settings: 1280 g/ha, visual score after 3 weeks, 100% = plants have died, 0% = like control plants
Excerpt: as §1

[7] = tested on: Amaranthus retroflexus; experiment: Pre-emergence herbicidal effect against AMARE; settings: 1280 g/ha, visual score after 3 weeks, 100% = plants have died, 0% = like control plants
Excerpt: as §1

[8] = tested on: Tripleurospermum inodorum; experiment: Pre-emergence herbicidal effect against MATIN; settings: 1280 g/ha, visual score after 3 weeks, 100% = plants have died, 0% = like control plants
Excerpt: as §1

[9] = tested on: Stellaria media; experiment: Pre-emergence herbicidal effect against STEME; settings: 1280 g/ha, visual score after 3 weeks, 100% = plants have died, 0% = like control plants
Excerpt: as §1

[10] = tested on: Veronica persica; experiment: Pre-emergence herbicidal effect against VERPE; settings: 1280 g/ha, visual score after 3 weeks, 100% = plants have died, 0% = like control plants
Excerpt: as §1

[11] = tested on: Alopecurus myosuroides; experiment: Post-emergence herbicidal effect against ALOMY; settings: 1280 g/ha, visual score after about 3 weeks, 100% = plants have died, 0% = like control plants
Protocol: (§2) [table] 2. Post-emergence herbicidal effect and crop plant compatibility Seeds of monocotyledonous and dicotyledonous weed and crop plants are laid out in sandy loam soil in wood-fibre pots, covered with soil and cultivated in a greenhouse under good growth conditions. 2 to 3 weeks after sowing, the test plants are treated at the one-leaf stage. The compounds of the invention, formulated in the form of wettable powders (WP) or as emulsion concentrates (EC), are then sprayed onto the green parts of the plants as aqueous suspension or emulsion at a water application rate equating to 600 to 800 l/ha with addition of 0.2% wetting agent. After the test plants have been left to stand in the greenhouse under optimal growth conditions for about 3 weeks, the action of the preparations is assessed visually in comparison to untreated controls (herbicidal action in percent (%): 100% activity=the plants have died, 0% activity=like control plants).

[12] = tested on: Digitaria sanguinalis; experiment: Post-emergence herbicidal effect against DIGSA; settings: 1280 g/ha, visual score after about 3 weeks, 100% = plants have died, 0% = like control plants
Protocol: as §2

[13] = tested on: Echinochloa crus-galli; experiment: Post-emergence herbicidal effect against ECHCG; settings: 1280 g/ha, visual score after about 3 weeks, 100% = plants have died, 0% = like control plants
Protocol: as §2

[14] = tested on: Poa annua; experiment: Post-emergence herbicidal effect against POAAN; settings: 1280 g/ha, visual assessment about 3 weeks after treatment, 100% = plants have died, 0% = like control plants
Protocol: as §2

[15] = tested on: Abutylon threophrasti; experiment: Post-emergence herbicidal effect against ABUTH; settings: 1280 g/ha, visual assessment about 3 weeks after treatment, 100% = plants have died, 0% = like control plants
Protocol: as §2

[16] = tested on: Bassia scoparia; experiment: Post-emergence herbicidal effect against KCHSC; settings: 1280 g/ha, visual assessment about 3 weeks after treatment, 100% = plants have died, 0% = like control plants
Protocol: as §2

[17] = tested on: Tripleurospermum inodorum; experiment: Post-emergence herbicidal effect against MATIN; settings: 1280 g/ha, visual assessment about 3 weeks after treatment, 100% = plants have died, 0% = like control plants
Protocol: as §2

[18] = tested on: Stellaria media; experiment: Post-emergence herbicidal effect against STEME; settings: 1280 g/ha, visual assessment about 3 weeks after treatment, 100% = plants have died, 0% = like control plants
Protocol: as §2

[19] = tested on: Veronica persica; experiment: Post-emergence herbicidal effect against VERPE; settings: 1280 g/ha, visual assessment about 3 weeks after treatment, 100% = plants have died, 0% = like control plants
Protocol: as §2

[20] = tested on: Amaranthus retroflexus; experiment: Post-emergence herbicidal effect against AMARE; settings: 1280 g/ha, visual assessment about 3 weeks after treatment, 100% = plants have died, 0% = like control plants
Protocol: as §2

SMILES | Pre-emergence action against ALOMY [1] [%] | Pre-emergence action against DIGSA [2] [%] | Pre-emergence action against ECHCG [3] [%] | Pre-emergence action against LOLRI [4] [%] | Pre-emergence action against POAAN [5] [%] | Pre-emergence action against SETVI [6] [%] | Pre-emergence action against AMARE [7] [%] | Pre-emergence action against MATIN [8] [%] | Pre-emergence action against STEME [9] [%] | Pre-emergence action against VERPE [10] [%] | Post-emergence action against ALOMY [11] [%] | Post-emergence action against DIGSA [12] [%] | Post-emergence action against ECHCG [13] [%] | Post-emergence action against POAAN [14] [%] | Post-emergence action against ABUTH [15] [%] | Post-emergence action against KCHSC [16] [%] | Post-emergence action against MATIN [17] [%] | Post-emergence action against STEME [18] [%] | Post-emergence action against VERPE [19] [%] | Post-emergence action against AMARE [20] [%]
CC(Sc1nn(-c2ccccc2F)c(-c2ccc(F)c(F)c2)c1Br)C(=O)O (stereo not shown) [Example I-022] | 90 | 100 | 90 | 100 | 90 | 100 | 90 | 90 | 100 | 100 | 100 | 90 | 100 | 100 | 90 | 90 | 100 | 90 | 100 | –
CCOC(=O)CSc1nn(-c2ccccc2F)c(-c2sncc2C)c1Br [Example V-001] | – | 90 | – | – | 90 | – | 100 | 90 | – | – | – | – | – | – | – | – | – | – | 90 | 100
CCOC(=O)CSc1nn(-c2ccccc2F)c(-c2cc(Cl)cs2)c1Br [IV-001] | – | – | – | 90 | 90 | – | 100 | 90 | 100 | 90 | – | – | – | – | – | – | – | – | 90 | 90
CCOC(=O)CSc1nn(-c2cccc(F)c2F)c(-c2ccccc2)c1Br [Example I-004] | 90 | 100 | 90 | 100 | 100 | 100 | 100 | 100 | 100 | 100 | 100 | – | – | 100 | – | – | 100 | 90 | 90 | 90

Source: US20230126893A1, “[(1,4,5-TRISUBSTITUTED-1H-PYRAZOL-3-YL)SULFANYL]ACETIC ACID DERIVATIVES, SALTS THEREOF, AND USE THEREOF AS ACTIVE HERBICIDAL INGREDIENTS” (BAYER AKTIENGESELLSCHAFT, priority 2020, published 2023)
